Test: light stability of thiazine dye solution exposed to ambient incandescent light
Type: physicochemical
Settings: total metal content less than 0.2 wt. %; initially deep-blue; overnight in the laboratory
Method: This example illustrates the light-instability of a TC product with negligible content of metal ions.
A sample of the TC product is prepared in accordance with Example 1 of my U.S. Pat. No. 6,086,852, incorporated herein by reference, and further purified by preparative high performance liquid chromatography. The total metal content of this sample is less than 0.2 wt. %.
An aliquout of this purified TC product sample is deep-blue in color.

Cc1cc2nc3ccc(=[N+](C)C)cc-3sc2cc1N.[Cl-] [TC product, tolonium chloride]
appearance of the solution after standing overnight exposed to ambient incandescent light: becomes colorless

Source: US7736625B2, “Light stabilized in vivo stain composition and method of manufacture” (Zila, Inc., priority 2001, dated 2010)
